Source: patent US20100048923A1, “ATR Inhibitor” (priority 2005, published 2010)

How the values were obtained:
A549 cells = experiment: G2/M checkpoint: cells containing phosphorylated histone H3 (flow cytometry) in UV-irradiated A549 cells; format: cell-based; settings: 30 μM compound, 20 J/m^2 UV, ratio of G2/M (phospho-histone H3) cells to total, Control 1.88, UV irradiation alone 0.52
Procedure: A549 cells were seeded as 3×10^4 cells/cm^2 in the growth medium on 10 cm dish and incubated for overnight. Then, Schizandrin B was added to the medium as final concentration of 30 μM. At 1 hour after the addition of Schizandrin B, the medium was removed, and were irradiated with 20 J/m^2 and 50 J/m^2 of UV. After the UV irradiation, and then the cells were incubated in the Schizandrin B-containing medium having the same concentration as mentioned above for 1 hour. Then, the percentage of the cells containing phosphorylated histone H3 were measured in accordance with a Measurement of the phosphorylated histone H3 as mentioned below. The FIG. 2(A) is a result of flowcytometry as obtained in the treatment with Schizandrin B. In the FIG. 2(A), the encircled portion indicates the cell group in G2/M phase, numbers as mentioned above the portion indicates the ratio of the cells in G2/M phase to the total number of cells. In addition, the FIG. 2(B) indicates a graph showing the ratio.
Ratios of the cells in G2/M phase to the total number of cells were obtained in accordance with the Embodiment 2-1, except that, in the Embodiment 2-1, 20 J/m^2 of UV were irradiated instead of 20 J/m^2 and 50 J/m^2 of UV and the compounds of the formulas (1) to (10) and Angeloyl Gomisin A of a formula (C) (final concentration of 30 μM) as mentioned below were used instead of the final concentration of 30 μM of Schizandrin B. The result is shown in Table 1.
The cells were harvested and fixed with 70% ice-cooled ethanol after the washing with PBS. PBS containing 0.25% Triton X-100 was added, and the cells were stood on ice for 30 minutes. Cells were centrifuged (500×g, 5 minutes) and replaced to PBS containing 1% bovine serum albumin (BSA) and 1 μg of […] (specifically binding to the phosphorylated histone H3 at 13 Serine), and incubated for 4 hours at room temperature.
After the subsequent washes with PBS containing 1% BSA, goat anti-rabbit IgG antibody conjugated with FITC which diluted with 100 times with PBS containing 1% BSA was added, and incubated for 30 minutes at dark place. These cells were counterstained with PI in accordance with the FACS analysis as mentioned below. The percentage of cells containing phosphorylated histone H3 was measured and evaluated with flowcytometry (Beckman-Coulter).

ATR = biological target: T1, ATR (Homo sapiens, UniProt Q13535); experiment: ATR protein kinase activity (Flag-ATR immunoprecipitate, PHAS-I substrate, 32P-ATP); format: biochemical; settings: 300 μM ATP, 20 minutes at 30° C., estimated from lines, read-out: IC50 for the phosphorylating activity of ATR
T1 construct: made in house; host or cells: 293T cells (ATCC: CRL-11268), transient transfection of pcDNA3.1 plasmid, anti-Flag M2 immunoprecipitate
T1 sequence (Q13535 whole entry A92R): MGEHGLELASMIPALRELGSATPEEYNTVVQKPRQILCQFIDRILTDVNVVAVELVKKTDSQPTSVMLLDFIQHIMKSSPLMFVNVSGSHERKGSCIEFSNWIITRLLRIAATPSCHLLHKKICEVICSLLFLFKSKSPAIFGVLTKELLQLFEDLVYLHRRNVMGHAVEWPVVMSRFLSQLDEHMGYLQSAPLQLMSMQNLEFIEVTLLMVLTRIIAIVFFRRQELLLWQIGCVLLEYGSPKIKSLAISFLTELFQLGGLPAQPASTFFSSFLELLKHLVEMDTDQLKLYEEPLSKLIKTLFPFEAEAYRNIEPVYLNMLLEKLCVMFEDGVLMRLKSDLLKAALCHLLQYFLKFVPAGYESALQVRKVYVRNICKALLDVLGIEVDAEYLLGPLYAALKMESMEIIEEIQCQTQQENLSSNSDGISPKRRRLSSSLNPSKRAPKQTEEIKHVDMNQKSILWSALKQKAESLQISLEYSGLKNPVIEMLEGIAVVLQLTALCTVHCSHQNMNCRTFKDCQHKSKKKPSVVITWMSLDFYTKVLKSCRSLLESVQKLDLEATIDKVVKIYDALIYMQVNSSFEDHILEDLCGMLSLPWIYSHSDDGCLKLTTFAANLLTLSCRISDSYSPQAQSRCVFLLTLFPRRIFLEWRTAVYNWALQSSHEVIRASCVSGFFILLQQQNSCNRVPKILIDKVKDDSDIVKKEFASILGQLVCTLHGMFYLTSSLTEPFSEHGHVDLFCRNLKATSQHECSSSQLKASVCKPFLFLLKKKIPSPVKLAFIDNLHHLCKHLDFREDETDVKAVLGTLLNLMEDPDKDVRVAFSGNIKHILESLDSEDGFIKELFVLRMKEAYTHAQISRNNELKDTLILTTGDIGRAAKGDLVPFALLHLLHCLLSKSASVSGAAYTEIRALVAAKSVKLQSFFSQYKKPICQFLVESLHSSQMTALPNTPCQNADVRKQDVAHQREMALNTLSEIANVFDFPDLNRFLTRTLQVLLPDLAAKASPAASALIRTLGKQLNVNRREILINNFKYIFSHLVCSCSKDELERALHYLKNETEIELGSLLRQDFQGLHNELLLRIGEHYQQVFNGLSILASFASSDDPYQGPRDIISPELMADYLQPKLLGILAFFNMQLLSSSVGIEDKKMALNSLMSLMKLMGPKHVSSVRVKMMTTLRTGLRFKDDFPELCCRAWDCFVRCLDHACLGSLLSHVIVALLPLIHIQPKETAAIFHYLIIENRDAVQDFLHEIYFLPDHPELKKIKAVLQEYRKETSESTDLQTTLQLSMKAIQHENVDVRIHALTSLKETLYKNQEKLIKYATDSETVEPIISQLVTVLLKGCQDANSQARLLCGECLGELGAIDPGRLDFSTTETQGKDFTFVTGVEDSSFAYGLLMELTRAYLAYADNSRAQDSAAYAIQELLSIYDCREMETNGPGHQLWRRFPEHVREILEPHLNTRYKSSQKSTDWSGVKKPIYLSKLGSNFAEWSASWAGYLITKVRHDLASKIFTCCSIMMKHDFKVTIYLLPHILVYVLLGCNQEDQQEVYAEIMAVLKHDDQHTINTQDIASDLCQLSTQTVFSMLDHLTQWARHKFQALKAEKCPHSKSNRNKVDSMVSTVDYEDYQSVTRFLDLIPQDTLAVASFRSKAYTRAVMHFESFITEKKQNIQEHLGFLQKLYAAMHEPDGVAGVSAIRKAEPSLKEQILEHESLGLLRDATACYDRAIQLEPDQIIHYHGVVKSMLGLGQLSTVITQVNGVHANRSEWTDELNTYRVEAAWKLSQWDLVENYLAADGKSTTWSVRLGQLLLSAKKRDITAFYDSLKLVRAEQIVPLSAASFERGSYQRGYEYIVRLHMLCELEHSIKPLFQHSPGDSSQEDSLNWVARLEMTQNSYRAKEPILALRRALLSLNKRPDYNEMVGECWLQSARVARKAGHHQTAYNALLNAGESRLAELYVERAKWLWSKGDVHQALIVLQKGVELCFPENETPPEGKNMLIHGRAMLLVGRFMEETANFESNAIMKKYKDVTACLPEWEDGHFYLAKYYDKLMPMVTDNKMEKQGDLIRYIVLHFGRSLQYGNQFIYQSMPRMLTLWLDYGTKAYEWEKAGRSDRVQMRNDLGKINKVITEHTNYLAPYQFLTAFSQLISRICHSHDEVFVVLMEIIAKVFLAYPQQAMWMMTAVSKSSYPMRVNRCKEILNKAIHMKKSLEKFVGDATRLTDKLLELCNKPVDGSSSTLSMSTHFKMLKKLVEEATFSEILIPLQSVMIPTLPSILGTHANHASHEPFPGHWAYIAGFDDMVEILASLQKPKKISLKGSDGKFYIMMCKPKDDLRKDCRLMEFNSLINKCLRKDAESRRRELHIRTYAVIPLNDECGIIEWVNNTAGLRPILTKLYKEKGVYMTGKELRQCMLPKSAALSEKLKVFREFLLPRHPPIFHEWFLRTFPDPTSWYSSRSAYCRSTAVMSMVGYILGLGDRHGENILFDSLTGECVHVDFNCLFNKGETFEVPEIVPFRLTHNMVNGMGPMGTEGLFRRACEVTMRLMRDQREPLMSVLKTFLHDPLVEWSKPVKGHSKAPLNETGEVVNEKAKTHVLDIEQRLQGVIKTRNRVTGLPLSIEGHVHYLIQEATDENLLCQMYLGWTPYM
Procedure: 1 μg of recombinant PHAS-I protein (Alexis Biochemicals) as a substrate, and Schizandrin B were added to mixtures of ATR and ATM for the kinase reaction as prepared in accordance with a Preparation of mixtures of ATR and ATM for kinase reaction as follows. 300 μM of ATP containing a suitable concentration of ^32P-ATP was added to react it for 20 minutes at 30° C. 4 volumes of SDS sample loading buffer (200 mM Tris-HCl (pH 6.8), 400 mM DTT and 8% SDS) were added to the reaction mixture to stop the reaction, and the obtained mixture is applied to 12% SDS-PAGE. After the gel as obtained was dried, […] corresponding to the band of ^32P—PHAS-I in the mixture was evaluated using autoradiography method. In the Figure, (A) and (B) indicate the relative activities of ATR and ATM, respectively, the horizontal axis indicates the concentration of Schizandrin B, and the vertical axis indicates the relative value of the count as obtained in Schizandrin B-treated group to that of no-addition of Schizandrin B group.
IC50s of the compounds for the phosphorylating activity of ATR were estimated based on the lines as obtained in accordance with Embodiment 7-1, except that, in Embodiment 7-1, the compounds of the Formulas (1) to (5) and the compound of the Formula (C) were used instead of Schizandrin B. The values are shown in Table 3.
ATR conjugated with Flag as constructed with conventional method as disclosed in, e.g. Non-Patent-Related Document 9 was used for a mixture of ATR for kinase reaction. In detail, Bam H1H-Swa I fragment of ATR gene (Sequence Number 4) (1 kb) was substituted with a gene having the ATR gene and Flag ([…]) at N terminal and the gene was amplified with PCR. So obtained gene product was introduced into pcDNA3.1, and target product was obtained from the plasmid. In addition, ATM conjugated with Flag as manufactured in accordance with the well-known method as disclosed in e.g. non-patent related documents 10 and 11 and using Quikchange site-Directed Mutagenesis Kit (Stratagene) was used for a mixture of ATM for kinase reaction.
These ATR and ATM plasmids tagged with Flag (Sequence Numbers 4 and 5) were transfected in 293T cells (ATCC: CRL-11268) by Calcium phosphate method as followed. After 2 days, 5 mg of cellular proteins were prepared using IP buffer in accordance with the Preparation of proteins as mentioned below instead of the UTB buffer, and ATR and ATM were immuno-precipitated with 20 μg of anti-Flag M2 monoclonal antibody (Sigma) for 4 hours at […], independently. The precipitates were incubated with beads conjugated with protein G cepharose (Amersham). […]

[1] = test system: P-p53 (Ser15) in A549 cells; experiment: Phosphorylation of p53 at serine 15 in UV-irradiated A549 cells (immunoblot); format: cell-based; settings: Homo sapiens, light or radiation study, 3 h, 30 μM compound, 25 J/m^2 UV, UV irradiation alone = 100%, Control 15.4, read-out: Relative rate of P-p53 (Ser15) band intensity
Procedure: A549 cells were seeded as 3×10^4 cells/cm^2 in the growth medium on 10 cm dish, incubated for overnight, and Schizandrin B was added in the medium as final concentration of 30 μM in the medium. After 1 hour incubation, the medium was removed, irradiated with 20 J/m^2 of UV, and incubated for 3 hours (hereinafter, referred to as “UV-cell group” with regard to the obtained cells).
It should be noted that both groups of the UV-cell group and IR-cell group were cultured in the presence of 50 μM of N-acetyl-L-Leucyl-L-Leucyl-L-norleucinal (Sigma, Mo., USA) (hereinafter, referred to as “LLnL”) from 15 minutes prior to the irradiation to collection of the cells as mentioned below. Protein in the cells were extracted in accordance with a Preparation of proteins as mentioned below, immunoblot analysis was performed with regard to the phosphorylated p53 at 15 serine (P-p53 (Ser 15)), p53 protein (p53), phosphorylated ATM protein at 1981 serine (P-ATM (Ser1981)) and glyceraldehyde-3-phosphate dehydrogenase (GAPDH) in accordance with an Immunoblot analysis as mentioned below.
The dose-depended effect of Schizandrin B on the phosphorylation of p53 in A549 cells irradiated with UV A549 cells were seeded as 3×10^4 cells/cm^2 in the growth medium on 10 cm dish, incubated for overnight, and Schizandrin B was added in the medium as final concentration of 10, 30 and 100 μM in the medium. After 1 hour incubation, the medium was removed, and the cells were irradiated with 20 J/m^2 of UV. The cells were treated with LLnL as mentioned in Embodiment 4. Then, expression of p53 and phosphorylated p53 at 15 serine (P-p53 (Ser15)) in the cells treated with the same concentration of Schizandrin B as mentioned above was examined.
Expression of phosphorylated p53 at 15 serine (P-p53 (Ser15)) was examined in accordance with Embodiment 5-1, except that, in Embodiment 5-1, compounds of the Formulas (1) to (10) and the compound of the Formula (C) (final concentration of 30 μM) were added in the medium instead of the addition of final concentration of 10, 30 and 100 μM of Schizandrin B in the medium, and 25 J/m^2 of UV was irradiated instead of the 20 J/m^2 of UV irradiation. Electrophoresis image as obtained is shown in FIG. 5-2, and relative ratio of the band intensity corresponding to P-p53 (Ser15) to that of the band as obtained in the irradiation with UV as 100% is shown in Table 2.
50 μg of cellular proteins (as prepared in accordance with the Preparation of proteins as mentioned below) were applied to SDS polyacrylamide gel electrophoresis (12.5%), the electrophored proteins were transferred into the nitrocellulose membrane in accordance with the standard method, and blocking reaction was performed for 1 hour at room temperature using Tris-buffered saline (TBS-T) containing 5% skim milk and 0.1% Triton X-100. So obtained membrane were incubated with the desired adequate antibodies as mentioned below for 16 hours at 4° C., and then incubated with secondary anti-serum (corresponding to the animal originated from the desired antibodies) conjugated with horseradish peroxidase for 1 hour at room temperature. Then, the target proteins were visualized with ECL reaction kit (Amersham) and chemiluminescence film (Amersham) to obtain a protein image.
The cells were harvested with ice-cooled PBS from the culture dish, and were washed twice with cooled PBS. Then, it was centrifuged to obtain cell pellet. The pellet was solubilized with UTB buffer as mentioned below to prepare cellular protein. The content of the proteins was measured with Protein Assay kit (Bio-Rad).

ATM = biological target: T2, ATM (Homo sapiens, UniProt Q13315); settings: caffeine, literature; cited from earlier work
T2 construct: made in house; host or cells: 293T cells (ATCC: CRL-11268), transient transfection, anti-Flag M2 immunoprecipitate

| IC50 (ATR) | SMILES | Rate of Divided cells (A549 cells) | activity at 30 µM [1] | IC50 for ATM relative to that of ATR (ATM) |
| --- | --- | --- | --- | --- |
| 111 µM | C/C=C(\C)C(=O)O[C@@]1(C)Cc2cc(OC)c(OC)c(OC)c2-c2c(cc3c(c2OC)OCO3)C[C@@H]1C (atropisomer, axis not shown) [AGA, Angeloyl Gomisin A, reference compound] | 1.04 ± 0.06% | 92.2% |  |
|  | COc1cc2c(c(OC)c1OC)-c1c(cc3c(c1OC)OCO3)C[C@H](C)[C@@](C)(O)C2 (atropisomer, axis not shown) [GA, Gomisin A] | 0.90 ± 0.07% | 58.3% |  |
|  | C/C=C(/C)C(=O)O[C@H]1c2cc(OC)c(OC)c(OC)c2-c2c(cc3c(c2OC)OCO3)C[C@H](C)[C@@]1(C)O (atropisomer, axis not shown) [GB, Gomisin B] | 0.85 ± 0.12% | 60.9% |  |
| 10.6 µM | COc1cc2c(c(OC)c1OC)-c1c(cc3c(c1OC)OCO3)C[C@H](C)[C@@](C)(O)[C@H]2OC(=O)c1ccccc1 (atropisomer, axis not shown) [GC, Gomisin C] |  |  |  |
|  | COc1cc2c(c(OC)c1OC)-c1c(cc3c(c1OC)OCO3)C[C@H](C)[C@](C)(O)[C@H]2OC(=O)c1ccccc1 (atropisomer, axis not shown) [GC, Gomisin C] | 1.16 ± 0.16% | 49.8% |  |
| 32 µM | COc1cc2c(c(OC)c1OC)-c1c(cc3c(c1OC)OCO3)[C@H](OC(=O)c1ccccc1)[C@](C)(O)[C@@H](C)C2 (atropisomer, axis not shown) [GG, Gomisin G] | 1.13 ± 0.05% | 51.3% |  |
| 45.7 µM | COc1cc2c(c(O)c1OC)-c1c(cc(OC)c(OC)c1OC)C[C@](C)(O)[C@@H](C)C2 (atropisomer, axis not shown) [GH, Gomisin H] | 1.42 ± 0.03% | 50.3% |  |
|  | COc1cc2c(c(OC)c1OC)-c1c(cc3c(c1OC)OCO3)C[C@@H](C)[C@@H](C)C2 (atropisomer, axis not shown) [GN, Gomisin N] | 0.88 ± 0.12% | 38.4% |  |
|  | COc1cc2c(c(OC)c1OC)-c1c(cc(OC)c(OC)c1OC)C[C@](C)(O)[C@@H](C)C2 (atropisomer, axis not shown) [S, Schizandrin] | 0.68 ± 0.04% | 42.7% |  |
|  | COc1c2c(cc3c1-c1c(cc4c(c1OC)OCO4)C[C@H](C)[C@H](C)C3)OCO2 (atropisomer, axis not shown) [SchC, Schizandrin C] | 0.68 ± 0.11% | 42.6% |  |
|  | Cn1c(=O)c2c(ncn2C)n(C)c1=O [Caffeine, 3,7-dihydro-1,3,7-trimethyl-1H-purine-2,6-dione] |  |  | ⅕ |
